From US20230263803A1, “METHODS OF PREVENTING OR TREATING COVID-19 AND RELATED VIRAL DISEASES OR DISORDERS” (KINARUS AG, priority 2020, published 2023)

Legend:
SARS-CoV-2PR1 = test: microbe, parasite or virus in culture; assay type: cell-based; conditions: Vero B4 cells, 72 hrs, qRT-PCR
Vero B4 cells = conditions: 72 hrs

Compound	inhibition of viral shedding (SARS-CoV-2PR1; at the highest concentrations) [%]	inhibition at 0.1 µM (SARS-CoV-2PR1; Severe acute respiratory syndrome coronavirus 2, lowest concentration tested (100 nM), read-out: inhibition of shedding of new SARS-CoV-2 viruses into culture supernatants) [%]	cellular toxicity as determined by WST assay (Vero B4 cells)
CCc1ccc(CCOc2ccc(CC3SC(=O)NC3=O)cc2)nc1 (stereo not drawn) [Pioglitazone]	> 90	–	–
Cn1c(=O)c(Oc2ccc(F)cc2F)cc2cnc(NC(CCO)CCO)nc21 [Pamapimod, 6-(2,4-Difluorophenoxy)-2-[3-hydroxy-1-(2-hydroxyethyl)-propylamino]-8-methyl-8H-pyrido[2,3-d]pyrimidin-7-one]	–	80	no cellular toxicity
